Test results from patent US20090306228A1, “ACTIVE AGENT DELIVERY SYSTEMS AND METHODS FOR PROTECTING AND ADMINISTERING ACTIVE AGENTS” (priority 2000, published 2009).
Values joined by “and” are separate entries in the source; they are usually repeats but may differ in a detail not shown here. Equal values may be shown once.

Assays:
[1] = In vivo performance of polyserine-naltrexone conjugate lot BB-301, serum naltrexone by ELISA; conditions: oral capsule; for Serum concentration of individual rats: 3.6 mg naltrexone (12.9 mg conjugate BB-301), Rat #1-#5
[2] = In vivo performance of polyserine-naltrexone conjugate lot BB-272, serum naltrexone by ELISA; conditions: for Serum concentration of individual rats: 3.6 mg naltrexone (12 mg conjugate BB-272), Rat #1-#4
Protocol: No excipients were added to the capsules.

[3] = after oral administration; cited from earlier work
[4] = target: pepsin (Sus scrofa, UniProt P00791); conditions: pig, 4 h, pH 1.2
Sequence of pepsin (P00791 60-385): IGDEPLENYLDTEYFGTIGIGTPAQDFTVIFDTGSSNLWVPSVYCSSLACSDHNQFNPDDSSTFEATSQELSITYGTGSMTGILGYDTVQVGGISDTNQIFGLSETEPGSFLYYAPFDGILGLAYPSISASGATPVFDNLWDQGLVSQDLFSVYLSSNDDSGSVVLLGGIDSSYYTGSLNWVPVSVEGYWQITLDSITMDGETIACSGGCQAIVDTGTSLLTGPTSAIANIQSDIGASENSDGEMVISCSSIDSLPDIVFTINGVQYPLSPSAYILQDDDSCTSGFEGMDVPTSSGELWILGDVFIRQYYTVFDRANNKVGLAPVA

[5] = test system: protease (type XIV, pronase); conditions: Streptomyces griseus, 24 h, pH 8.4
[6] = test system: pancreatin; conditions: pig, 24 h, pH 7.5
[7] = In vivo performance of polyglutamic acid-AZT conjugate lot TM-113, plasma AZT by ELISA; set-up: species or system Sprague-Dawley rats; conditions: for Plasma concentration of individual rats: Rat #1-#5
Protocol: […]. Polyglutarnic acid-AZT conjugate was given to five rats at a dose containing 15 mg/kg of AZT.

[8] = in vivo; conditions: male, Sprague-Dawley, rat, plasma, po
[9] = female, Sprague Dawley, rat, in vivo, po
[10] = male, Sprague Dawley, rat, in vivo, po, 3.6 mg
[11] = male, Sprague-Dawley, rat, plasma, po, 15 mg/kg

Compound: O=C1CC[C@@]2(O)[C@H]3Cc4ccc(O)c5c4[C@@]2(CCN3CC2CC2)[C@H]1O5 [Naltrexone]
- Serum concentration of individual rats ([1]; 0.5 hours): 39 ng/mL and 141 ng/mL and 128 ng/mL and 126 ng/mL and 142 ng/mL
- Serum concentration of individual rats ([1]; 3 hours): 91 ng/mL and 62 ng/mL and 44 ng/mL and 30 ng/mL and 46 ng/mL
- Serum concentration of individual rats ([1]; 5 hours): 45 ng/mL and 193 ng/mL and 16 ng/mL and 8 ng/mL and 19 ng/mL
- Serum concentration of individual rats ([1]; 8 hours): 19 ng/mL and 6 ng/mL and 2 ng/mL and 5 ng/mL and 4 ng/mL
- Serum concentration of individual rats ([1]; 12 hours): 3 ng/mL (2×) and 1 ng/mL and 2 ng/mL (2×)
- Serum concentration of individual rats ([1]; 15 hours): 4 ng/mL and 1 ng/mL (2×) and 2 ng/mL (2×)
- Serum concentration of individual rats ([1]; 24 hours): 2 ng/mL (2×) and 1 ng/mL (2×) and 3 ng/mL
- time at which naltrexone serum levels spiked ([1]; equal dose, lot BB-301): 0.5 h
- time for which serum levels of naltrexone remained elevated ([1]; equal dose, lot BB-301): < 8 h
- concentration at 2 h [2, 10]: 46 ng/mL
- concentration at 4 h [2, 10]: 11 ng/mL
- concentration at 6 h [2, 10]: 9 ng/mL
- concentration at 9 h [2, 10]: 3 ng/mL
- Serum concentration of individual rats ([2]; oral capsule, 2 hours): 33 ng/mL and 91 ng/mL and 37 ng/mL and 22 ng/mL
- Serum concentration of individual rats ([2]; oral capsule, 4 hours): 6 ng/mL and 25 ng/mL and 12 ng/mL and 3 ng/mL
- Serum concentration of individual rats ([2]; oral capsule, 6 hours): 13 ng/mL and 10 ng/mL and 8 ng/mL and 6 ng/mL
- Serum concentration of individual rats ([2]; oral capsule, 9 hours): 3 ng/mL and 6 ng/mL and 2 ng/mL and 1 ng/mL
- Serum concentration of individual rats ([2]; oral capsule, 12 hours): 2 ng/mL (2×) and 1 ng/mL
- Mean serum concentration +/- SD ([2]; oral capsule, 3.6 mg naltrexone, lot BB-272, 12 hours): 1 ± 1 ng/mL
- time at which serum levels spiked ([2]; oral capsule, lot BB-272, 2 hours was the first measurement): 2 h

Compound: CC1OC(OC2C(O)CC(OC3C(O)CC(O[C@H]4CCC5(C)C(CCC6[C@@H]5CC(O)C5(C)[C@@H](C7=CC(=O)OC7)CCC65O)C4)OC3C)OC2C)CC(O)C1O (stereo partly drawn) [Digoxin, digoxin]
- time until an effect is evident [3]: 1 to 2 h

Compound: Nc1ccc(O)c(C(=O)O)c1 [Mesalamine, 5-amino-2-hydroxybenzoic acid]
- Stomach (simulator, release of active agent from peptide conjugate) [4]: 11%
- Pronase (release of active agent from peptide conjugate) [5]: 46%
- Intestine (simulator, release of active agent from peptide conjugate) [6]: 10%

Compound: CCN(CC)CCNC(=O)c1cc(Cl)c(N)cc1OC [Metoclopramide]
- Stomach (simulator, release of active agent from peptide conjugate) [4]: 0%
- Pronase (release of active agent from peptide conjugate) [5]: 6.50%
- Intestine (simulator, release of active agent from peptide conjugate) [6]: 95.20%

Compound: Cc1ncc([N+](=O)[O-])n1CCO [Metronidazole]
- Stomach (simulator, release of active agent from peptide conjugate) [4]: 20.20%
- Pronase (release of active agent from peptide conjugate) [5]: 28.90%
- Intestine (simulator, release of active agent from peptide conjugate) [6]: 64.30%

Compound: Cc1ccc(C)c(OCCCC(C)(C)C(=O)O)c1 [Gemfibrozil, 5-(2,5-dimethylphenoxy)-2,2-dimethylpentanoic acid]
- Stomach (simulator, release of active agent from peptide conjugate) [4]: 0%
- Pronase (release of active agent from peptide conjugate) [5]: 2%
- Intestine (simulator, release of active agent from peptide conjugate) [6]: 3.60%

Compound: Cc1cn([C@H]2C[C@H](N=[N+]=[N-])[C@@H](CO)O2)c(=O)[nH]c1=O [AZT, 3′-azido-3′-deoxythymidine]
- AUC(0-t) [7, 11]: 4040 ng·h/mL
- Cmax [7, 11]: 2390 ng/mL
- Tmax [7, 11]: 30 min
- concentration at 0 h ([7]; male, Sprague-Dawley, rat, plasma, po, 15 mg/kg, 15 mg/kg of AZT, lot TM-113, 0 hours): 7 ng/mL
- concentration at 0.5 h ([7]; male, Sprague-Dawley, rat, plasma, po, 15 mg/kg, 15 mg/kg of AZT, lot TM-113, 0.5 hours): 2390 ng/mL
- concentration at 3 h ([7]; male, Sprague-Dawley, rat, plasma, po, 15 mg/kg, 15 mg/kg of AZT, lot TM-113, 3 hours): 223 ng/mL
- concentration at 5 h ([7]; male, Sprague-Dawley, rat, plasma, po, 15 mg/kg, 15 mg/kg of AZT, lot TM-113, 5 hours): 49 ng/mL
- concentration at 8 h ([7]; male, Sprague-Dawley, rat, plasma, po, 15 mg/kg, 15 mg/kg of AZT, lot TM-113, 8 hours): 11 ng/mL
- concentration at 12 h ([7]; male, Sprague-Dawley, rat, plasma, po, 15 mg/kg, 15 mg/kg of AZT, lot TM-113, 12 hours): 36 ng/mL
- concentration at 24 h ([7]; male, Sprague-Dawley, rat, plasma, po, 15 mg/kg, 15 mg/kg of AZT, lot TM-113, 24 hours): 8 ng/mL
- time at which AZT plasma levels spiked ([7]; oral, 15 mg/kg of AZT): 0.5 h
- time for which plasma levels of AZT remained elevated ([7]; oral, 15 mg/kg of AZT, lot TM-113): < 3 h
- Plasma concentration of individual rats ([7]; oral, 15 mg/kg of AZT, lot TM-113, 0 hours, 15 mg/kg): 6 ng/mL and 4 ng/mL and 2 ng/mL and 9 ng/mL and 14 ng/mL
- Plasma concentration of individual rats ([7]; oral, 15 mg/kg of AZT, lot TM-113, 0.5 hours, 15 mg/kg): 4520 ng/mL and 2108 ng/mL and 2657 ng/mL and 1978 ng/mL and 690 ng/mL
- Plasma concentration of individual rats ([7]; oral, 15 mg/kg of AZT, lot TM-113, 3 hours, 15 mg/kg): 598 ng/mL and 132 ng/mL and 200 ng/mL and 94 ng/mL and 93 ng/mL
- Plasma concentration of individual rats ([7]; oral, 15 mg/kg of AZT, lot TM-113, 5 hours, 15 mg/kg): 79 ng/mL and 25 ng/mL and 78 ng/mL and 26 ng/mL and 39 ng/mL
- Plasma concentration of individual rats ([7]; oral, 15 mg/kg of AZT, lot TM-113, 8 hours, 15 mg/kg): 16 ng/mL and 18 ng/mL and 12 ng/mL and 4 ng/mL and 5 ng/mL
- Plasma concentration of individual rats ([7]; oral, 15 mg/kg of AZT, lot TM-113, 12 hours, 15 mg/kg): 101 ng/mL and 38 ng/mL and 28 ng/mL and 2 ng/mL and 6 ng/mL
- Plasma concentration of individual rats ([7]; oral, 15 mg/kg of AZT, lot TM-113, 24 hours, 15 mg/kg): 13 ng/mL and 12 ng/mL and 4 ng/mL and 8 ng/mL and 3 ng/mL
- Tmax [8]: 30 min

Compound: NS(=O)(=O)c1cc(C(=O)O)c(NCc2ccco2)cc1Cl [Furosemide]
- 9 hour serum level as percent of its 3 hour level [9]: 59.8%
